# In patent US20260007717A1, “ANTIMICROBIAL PEPTIDE COMPOUNDS AND METHODS OF USE” (priority 2022, published 2026):
# “And” between values parts separate entries of the source, which are not always exact repeats. Equal entries are not always repeated. Where two headings read alike, the source gives them in different places. Non-standard residues stand in square brackets, D forms with d. Residues, ends and D or L forms follow the SMILES beside them. Aib = CC(C)(N)C(=O)O
# Legend:
# P. gingivalis = assay type: cell-based; details: anaerobic BHI broth
# Experimental: Briefly, P. gingivalis is grown under anaerobic conditions to mid-log phase as per Dominy et al. […] The microtiter plate method outlined by Jansen (ibid) was used to measure MICs. Compounds and bacteria are added to wells of a microtiter plate and grown anaerobically (P. gingivalis) or with CO2 (L. salivarius) for 24 to 72 hours. Growth is measured with light scattering at 592 nm on a plate reader and absorbance plotted against μg/ml of drug in each well.
# [1] = tested on: Streptococcus pneumoniae, methicillin-sensitive Staphylococcus aureus, MRSA, Klebsiella pneumoniae and Pseudomonas aeruginosa; assay type: cell-based
# A. baumannii YQ4 [2] = assay: Bactericidal efficacy (LC99.9) in PBS with or without 50% human plasma; assay type: cell-based, Acinetobacter baumannii; details: 2 h, listed as COG1410
# Experimental: Antibacterial activity in plasma of COG1410 was performed as described previously. […] After incubation with shaking at 200 rpm at 37° C. for 2 hours, the CFUs were counted on LB agar. LC99.9 indicates the lowest peptide concentration that kills ≥99.9% bacteria (ie. a 1000 fold reduction). The experiments were conducted independently for three times.
# A. baumannii = assay: Bactericidal efficacy in PBS, LB broth and saline; assay type: cell-based, Acinetobacter baumannii; details: 1×MIC, 2 h
# [3] = Stability in 100% human plasma (inhibition zone on A. baumannii YQ4); assay type: in vitro ADME
# A. baumannii YQ4 biofilm = assay: Static biofilm inhibition, crystal violet; assay type: cell-based, Acinetobacter baumannii
# Experimental: 200 μl culture was seeded in each cell of the 96-well PVC plate with OD600 0.01 (ca. 1×10^6 CFU/ml), which was exposed to different COG1410 solution with the final concentrations ranging from 0.5 to 128 μg/ml. Each concentration was determined in 8 wells. After incubation 37° C. for 48 h, the planktonic bacteria were removed by washing three times with sterilized water, followed by fixing in methanol for 15 min and staining with 0.1% crystal violet (CV) for 15 min. Excess CV was washed off and the bound CV was eluted from the biofilm into 150 μl of 95% ethanol and quantitated spectrophotometrically at 600 nm using a Biotek Synergy H1 plate reader. The experiments were performed in triplicate.
# [4] = tested on: A. baumannii YQ4 preformed biofilm; assay: Biofilm eradication assay, crystal violet; assay type: cell-based, Acinetobacter baumannii; details: 24 h
# Experimental: Biofilm eradication assay was performed as described previously [24]. A. baumannii YQ4 culture at log phase was diluted into fresh LB broth to OD600 0.01 and 200 μl per well dispensed into a 96-well PVC plate. Plates were incubated at 37° C. for 48 h and washed with PBS for three times. Serial dilutions of COG1410 (0.5-128 μg/mL) were prepared using the same media and were dispensed with 200 μl into each well. Each concentration was determined in 8 wells. LB without COG1410 was used as untreated control. After incubation for another 24 h, the remaining biofilm was quantified as described above. The experiments were performed in triplicate.
# A. baumannii YQ4 [5] = assay: ATP leakage assay; assay type: cell-based, Acinetobacter baumannii; details: 1×MIC, 30 min
# Experimental: ATP leakage assay was performed using the Enhanced ATP Assay Kit of Beyotime (S0027) according to the manufacturer's manual. Briefly, the log-phase culture of A. baumannii YQ4 was prepared, washed and suspended in PBS as above. This suspension was exposed to 16 μg/ml COG1410, 16 μg/ml polymyxin B and 32 μg/ml tigecycline, respectively and incubated at 37° C. for 30 min. The supernatant was harvested and used for measurement of ATP levels. 100 μl of supernatant was mixed with 100 μl working solution and the chemiluminescence was measured by Biotek Synergy H1 plate reader. Untreated sample was set as negative control. The experiments were performed in triplicate.
# A. baumannii YQ4 [6] = assay: ROS detection with DCFH-DA probe; assay type: cell-based, Acinetobacter baumannii
# [7] = tested on: A. baumannii ATCC19606 and LPS-modified strains pmrAP102R and pmrAP102RmiaAI221V; assay: MIC on wild-type and LPS-modified strains; assay type: cell-based, Acinetobacter baumannii; details: LB broth
# Experimental: MIC was determined against A. baumannii wild-type strain ATCC19606 and the corresponding LPS-defective mutants with pmrAP102R and pmrAP102RmiaAI221V mutation in LB broth.
# A. baumannii YQ4 [8] = tested on: A. baumannii YQ4
# Experimental: The checkerboard method was performed to determine the fractional inhibitory concentration (FIC) index between COG1410 and other antimicrobials. Two-fold serial dilutions of antimicrobials and COG1410 were conducted and mixed in the 96-well plate. […] The experiments were conducted twice independently.
# [9] = tested on: pan-drug resistant (PDR) Acinetobacter baumannii YQ4
# [10] = single intravenous injection; cited from earlier work
# [11] = tested on: normal human hepatic L02 cells; assay: Cytotoxicity, CCK8 assay; details: 24 h
# Experimental: The cytotoxicity of COG1410 on normal liver cell L02 was assessed by Cell Counting Kit 8 (Solarbio, CA1210) according to the manufacturer's manual. Briefly, 100 μl human hepatic L02 cells were seeded in the 96-well plate with 4×10^3 cells per well in RPMI-1640 medium containing 20% FBS, and incubated at 37° C. in a 5% CO2 atmosphere for 24 h. The cells without exposure to peptide were used as negative control. Then, the L02 cells were incubated with different concentrations of COG1410 for another 24 h. 10 μl CCK8 solution was added to each well. After 2 h incubation, the optical absorbance at 450 nm was measured with BioTek synergy H1 plate reader. […] The experiments were done in triplicate.
# PDR A. baumannii YQ4 = assay: Dynamic time-kill assay in PBS
# Experimental: For dynamic time-kill assay, the overnight culture of A. baumannii YQ4 was transferred to fresh broth with initial OD600 0.01 and grown to the logarithmic phase. 1 ml culture was harvested, washed twice with 1× phosphate-buffered saline (PBS, pH7.4), containing 8 mM NaH2PO4, 2 mM KH2PO4, 2.6 mM KCl, 136 mM NaCl), and finally suspended in 1 ml PBS with OD600 0.5, which approximately corresponds to 1×10^8 CFU/ml. […] 100 μl aliquot was respectively taken at 0, 5, 10 and 30 min, serially diluted in PBS and plated on LB agar. The CFUs were counted after incubation at 37° C. for 18 h. […] Three independent experiments were performed.
# A. baumannii YQ4 [12] = assay: Nematode killing assay (infection model); details: NGM plate; 16 μg/ml COG1410 alone or 2 μg/ml COG1410 plus 1 μg/ml polymyxin B
# A. baumanii YQ4 = assay: Induction of resistance through serial passage; details: after 55 passages at sub-MIC
# Experimental: The initial concentration of the tested compounds was set up as 1/32×MIC and doubled every 10 passages. The 1 ml of bacterial culture was stored in 10% sterile glycerol at −80° C. every 5 passages. The MIC value of collected cultures and original strains were measured through the micro-dilution method.
# [13] = tested on: pan-drug resistant (PDR) Acinetobacter baumannii YQ4; assay: microbe, parasite or virus in culture
# Experimental for human erythrocytes: The anti-coagulated (citrate) whole blood was pelleted by centrifugation at 700 g for 8 min, washed three times with PBS, and suspended to 0.5% (vol/vol) in PBS. […] The highest concentration was 512 μg/ml (363 μM). PBS and Triton X-100 (0.1%) were used as negative and positive controls, respectively. The plate was incubated at 37° C. for 1 h, followed by centrifuge at 1,000 rpm for 5 min at 4° C. 60 μl aliquots of the supernatant from each well were quickly transferred to a new flat-bottom 96-well plate. The optical absorbance at OD414 was measured with a microplate reader (BioTek, synergy H1). The hemolysis percentage was then normalized with respect to the averaged negative (0%) and positive (100%) controls. Three independent experiments were conducted.
structure (smiles),measurement,setting,value
"CC(=O)N[C@@H](C)C(=O)N[C@@H](CO)C(=O)NC(C)(C)C(=O)N[C@@H](CC(C)C)C(=O)N[C@@H](CCCNC(=N)N)C(=O)N[C@@H](CCCCN)C(=O)N[C@@H](CC(C)C)C(=O)NC(C)(C)C(=O)N[C@@H](CCCCN)C(=O)N[C@@H](CCCNC(=N)N)C(=O)N[C@@H](CC(C)C)C(=O)N[C@@H](CC(C)C)C(N)=O [SEQ ID NO: 1, acetyl-AS-aib-LRKL-aib-KRLL-amide] (Ac-AS[Aib]LRKL[Aib]KRLL-NH2)",MIC P. gingivalis,P. gingivalis,16 to 64 µg/mL
same,antimicrobial activity,[1],inactive
same,LC99.9,A. baumannii YQ4 [2]; PBS with 50% human plasma,8 μg/ml and 5.6 μM
same,LC99.9,A. baumannii YQ4 [2]; PBS,2 μg/ml and 1.4 μM
same,bactericidal efficacy,A. baumannii,near elimination
same,inhibition diameters,"[3]; 37° C., first 2 h",did not significantly change
same,activity reduced,[3]; 4 h,6.8%
same,activity lost,[3]; 10 h,20%
same,activity retained,[3]; after 10 h,more than 80%
same,biofilm formation,"A. baumannii YQ4 biofilm; 0.5×MIC, 48 h",significantly reduced biofilm formation
same,"biofilm mass reduced, compared with untreated controls",A. baumannii YQ4 biofilm; 1×MIC,55%
same,mature biofilm dispersed,[4]; 1×MIC,ca. 46%
same,biofilm eradicated,[4]; 4×MIC,more than 88%
same,ATP leakage,A. baumannii YQ4 [5],significantly more than untreated controls and the tigecycline treatment group
same,ROS production,A. baumannii YQ4 [6]; 16 μg/ml,significantly increased ROS production
same,more ROS detected after treatment,A. baumannii YQ4 [6]; treatment for 20 min,30%
same,effect of lipidA modification of LPS on antimicrobial efficacy,[7],did not change the antimicrobial efficacy
same,working concentration in the combination,A. baumannii YQ4 [8]; COG1410 combined with polymyxin B,2 µg/mL
same,FIC,A. baumannii YQ4 [8]; in combination with Ceftazidime,0.31
same,FIC,A. baumannii YQ4 [8]; in combination with polymyxin B,0.13
same,FIC,A. baumannii YQ4 [8]; in combination with tetracycline,0.31
same,MIC,[9]; A. baumannii YQ4,11.3 µM
same,MIC,"[9]; A. baumannii YQ4, LB broth",16 µg/mL
same,minimal bactericidal concentration (MBC),"[9]; A. baumannii YQ4, listed as COG1410",16 μg/ml and 11.3 μM
same,EC50 (half of the red blood cells lysed),human erythrocytes; 1 h,441 µg/mL
same,hemolysis,"human erythrocytes; red cells of human, 128 μg/ml",less than 5%
same,functional outcome,[10],significantly improved vestibulomotor function and spatial learning and memory
same,half-maximal (EC50) toxicity concentration,[11],58.9 µg/mL
same,reduction in CFU,"PDR A. baumannii YQ4; 1×MIC, 30 min",6 log
same,decrease of CFU,"PDR A. baumannii YQ4; 1×MIC, within 5 min",~3 logs
same,killing of inoculum (1×10^8 CFU/ml),"PDR A. baumannii YQ4; 5×MIC, within 5 min",completely eliminated
same,survival of pre-infected nematodes,A. baumannii YQ4 [12],"alleviated the death of infected nematodes, but the change was not statistically significantly"
same,increase of MIC,A. baumanii YQ4,4 fold
CN(C)c1cc(NC(=O)CNC(C)(C)C)c(O)c2c1C[C@H]1C[C@H]3[C@H](N(C)C)C(O)=C(C(N)=O)C(=O)[C@@]3(O)C(O)=C1C2=O [tigecycline],MIC,[13],32 µg/mL
